Where two headings read alike, the source gives them in different places.
Experiments:
[1] = Stability in Japan Pharmacopoeia 1st solution (pH 1.2) at 37° C., with or without stabilizer (TLC densitometry, 232 nm); type: physicochemical; conditions: for improvement of stability compared with control, 30 minutes: value at 30 minutes; for stability in 1st solution (in words): 1st solution pH 1.2, no stabilizer; for stability with tri-sodium citrate (in words): 150-300 mg of tri-sodium citrate; for stability with calcium phosphate (in words): 150-400 mg of calcium phosphate; for stability with glycine (in words): 150-900 mg of glycine; for stability with L-aspartic acid monosodium salt (in words): 200-500 mg of Asp.Na; for stability with monosodium glutamate (in words): 200-500 mg of Glu.Na; for degraded at 0.5 h: read-out: decomposites (balance), 30 minutes; for remaining at 0.5 h: read-out: residual amount after contact with 1st solution, 30 minutes; for degraded at 1 h / remaining at 1 h: 60 minutes; for stability with a larger amount of glycine (in words): larger amount of glycine (up to 900 mg)
Source text: The stabilizers showing pH 3-10 used in the invention may be substances having a buffering or antacid action and showing pH 3-10, preferably 5.5-6.5. These are, for example, neutral amino acids or their basic salts, basic salts of acidic amino acids, basic amino acids,basic salts of organic carboxylic acids,basic salts of polybasic organic carboxylic acids, basic salts of uronic acid or inorganic salt antacids. The neutral amino acids or basic salts thereof include glycine, alanine, aminobutyric acid, proline, leucine, isoleucine, methionine, threonine, serine, valine, or their aluminium salts, for example aluminium glycinate. Among these, glycine, alanine and aluminium glycinate, both of which show pH 5.5-6.5, are preferable. The basic salts of acidic amino acid include monobasic salts such as a monosodium, monopotassium or magnesium salt of glutaminic or aspartic acid. Among these monobasic salts, monosodium glutamate or monosodium aspartate is preferable. The basic amino acids include arginine, glutamine, asparagine, citrulin, tryptophane and histidine. Especially, histidine is preferable. The basic salts of monobasic organic carboxylic acid include basic salts such as sodium, potassium, magnesium or aluminium salts of saturated monobasic organic carboxylic acids such as acetic acid and propionic acid, of unsaturated monobasic organic acids such as acrylic acid, crotonic acid and vinylacetic acid, and of other monobasic organic acids such as lactic acid, pyruvic acid, glyceric acid and acetoacetic acid. The basic salts of polybasic organic carboxylic acid include mono-, di- or tri-sodium, potassium, magnesium, calcium or aluminium salts of saturated polybasic organic carboxylic acids such as oxalic acid, malonic acid, succinic acid, glutaric acid, adipic acid and pimelic acid, of unsaturated polybasic organic carboxylic acids such as maleic acid and fumaric acid, and of other polybasic organic carboxylic acids such as meso-oxalic acid, malic acid, oxalacetic acid and citric acid. Among these, trisodium citrate is preferable. The basic salts of uric acids include sodium salts of glucuronic acid, galacturonic acid or their polymers such as alginic acid or peptic acid and dihydroxyaluminium aminoacetate sodium alginate. The inorganic salt antacids include calcium hydrogenphosphate, disodium hydrogenphosphate, dipotassium hydrogenphosphate, magnesium hydrogenphosphate, calcium carbonate, sodium carbonate, potassium carbonate, sodium hydrogen carbonate, aluminium carbonate, magnesium carbonate, potassium metasilicate, magnesium aluminate metasilicate, sodium metasilicate, synthetic aluminium silicate, magnesium silicate, aluminium silicate, magnesium aluminate silicate, magnesium-bismuth aluminate silicate, magnesium oxide, alumina-magnesium hydroxide, magnesium peroxide, magnesium hydroxide, aluminium hydroxide, synthetic hydrotarphite, aluminium phosphate and others. Especially, calcium phosphate and magnesium phosphate are preferable. Each of these stabilizers may be used alone or in the form of a mixture. […] A method for stabilization of 16-membered ring macrolide antibiotics of the present invention will be described in detail. The afore-mentioned various 16-membered ring macrolide antibiotics, for example 9-hydroxy 16-membered ring macrolides such as midecamycin, 3"-propionylleucomycin A5 and josamycin and 9-acyloxy 16-membered ring macrolides such as 9,3"-diacetylmidecamycin and 9-propionyljosamycin show extremely poor residual rates when added to an acidic solution of the Japanese Pharmacopoeia lst liquid (pH 1.2) and allowed to stand. That is, the 9hydroxy 16-membered ring maclorides decompose in a short time to by-produce their iso, demycarosyl and/or isodemycarosyl forms. The 9-acyloxy 16-membered ring macrolides decompose, too, to by-produce their 9-deacyl, 9-deacyl-iso, demycarosyl, 9-deacyl-demycarosyl or 9-deacyl-iso-demycarosyl forms. […]

[2] = Elution rate in aqueous solutions of various pH and physiological saline solution; type: physicochemical; conditions: for elution rate, pH 1.2, 2 and 3: initial pH 1.2, 2 and 3; for elution rate, pH 1.2, 2 and 3 / elution rate, pH 4 and 5 / elution rate, physiological saline solution: 37° C.; for elution rate, pH 4 and 5: initial pH 4 and 5
Method: After 40 ml of Japan Pharmacopoeia 1st solution (pH 1.2) was placed in a vessel whose temperature was kept constant in a thermostat at 37° C., 200 mg of TMS-19-Q was added and the mixture was stirred by a magnetic stirrer. […] Then, Japan Pharmacopoeia 2nd solution were mixed with the 1st solution, and by using aqueous solutions whose pH values were adjusted to be 2, 3, 4 and 5 and a physiological saline solution, respectively, elution rate of each thereof was measured.
To 40 ml of Japan Pharmacopoeia 1st solution (pH 1.2), 120 ml of water was added, and after the solution was kept in a constant temperature bath controlled at 37° C., 200 mg of midecamycin was added, and the mixture was stirred by a magnetic stirrer. Then, 5 ml aliquots of the solution were sampled in a lapse of time (at 5 minutes, 15 minutes and 30 minutes), and absorbances were measured (wavelength: 232 nm) and elution rate were calculated. Then, Japan Pharmacopoeia 1st solution and Japan Pharmacopoeia 2nd solution were mixed to prepare aqueous solutions whose pH values were adjusted to be 2, 3, 4 and 5, respectively. By using these solutions and physiological saline solution, the elution rates were calculated following the same procedures as those indicated above.
By following the same procedures and under the same conditions as those of Example 31, elution rates of 9-propionyljosamycin were measured.
By following the same procedures and under the same conditions as those of Example 31, elution rates of josamycin were measured.
In addition to the conditions of Example 31, Japan Pharmacopoeia 1st solution and Japan Parmacopoeia 2nd solution were mixed to prepare an aqueous solution having pH of 2.5, and following the same procedures as those of Example 31, elution rates of 9,3"-diacetylmidecamycin were measured.

[3] = jp 1st solution, 1st solution pH 1.2, 37° C., 30 minutes, no stabilizer
[4] = jp 1st solution, 1st solution pH 1.2, 37° C., no stabilizer, read-out: decomposites (balance), 60 minutes
[5] = jp 1st solution, 1st solution pH 1.2, 37° C., no stabilizer, read-out: residual amount after contact with 1st solution, 60 minutes
[6] = solutions whose pH is equal to or less than 4.37
[7] = 1st solution pH 1.2, 37° C., 30 minutes, no stabilizer
[8] = jp 1st solution, pH 1.2, 1st solution pH 1.2, 37° C., 30 minutes, no stabilizer

## CCC(=O)OC1CC(=O)OC(C)C/C=C/C=C/C(OC(C)=O)C(C)CC(CC=O)C(OC2OC(C)C(OC3CC(C)(OC(C)=O)C(OC(=O)CC)C(C)O3)C(N(C)C)C2O)C1OC (stereo not drawn) [9,3"-diacetylmidecamycin]
[1]; 150 mg of glycine
  improvement of stability compared with control, 30 minutes: 60%
[1]
  stability in 1st solution (in words): extremely unstable
  stability with a larger amount of glycine (in words): hardly decomposed
[1]; 1st solution
  stability with tri-sodium citrate (in words): very much enhanced
  stability with calcium phosphate (in words): extremely enhanced
  stability with glycine (in words): stabilized well
  stability with L-aspartic acid monosodium salt (in words): very much enhanced
  stability with monosodium glutamate (in words): very much enhanced
[1]; [3]
  degraded at 0.5 h: 50.6%
  remaining at 0.5 h: 49.4%
[1]; [4]
  degraded at 1 h: 75.5%
[1]; [5]
  remaining at 1 h: 24.5%
[2]; initial pH 1.2, 2 and 2.5, after 15-minute stirring
  elution rate, pH 1.2, 2 and 2.5: ≥ 95%
[2]; initial pH 3, after 15-minute stirring
  elution rate, pH 3: 50%
[2]; initial pH 4 and 5 and physiological saline, after 15-minute stirring
  elution rate, pH 4 and 5 and physiological saline solution: 5-10%
[2]; pH 1.2-2.5, general description
  elution rate in pH 1.2-2.5 acidic aqueous solution (summary): more than 95%
[2]; general description
  elution rate in physiological saline solution (summary): less than 15%
[2]; solutions whose final pH is equal to or less than 3.77
  time within which elution was nearly completed: ≤ 15 min

## CCC(=O)O[C@H]1/C=C/C=C/C[C@@H](C)OC(=O)C[C@@H](OC(C)=O)[C@H](OC)[C@@H](O[C@@H]2O[C@H](C)[C@@H](O[C@H]3C[C@@](C)(O)[C@@H](OC(=O)CC(C)C)[C@H](C)O3)[C@H](N(C)C)[C@H]2O)[C@@H](CC=O)C[C@H]1C [9-propionyljosamycin]
[1]; 150 mg of glycine, value at 60 minutes
  improvement of stability compared with control, 60 minutes: improved by four times
[1]
  stability in 1st solution (in words): extremely unstable
  stability with a larger amount of glycine (in words): hardly decomposed
[1]; 1st solution
  stability with tri-sodium citrate (in words): very much enhanced
  stability with calcium phosphate (in words): extremely enhanced
  stability with glycine (in words): stabilized well
  stability with L-aspartic acid monosodium salt (in words): very much enhanced
  stability with monosodium glutamate (in words): very much enhanced
[1]; jp 1st solution, pH 1.2, 1st solution, about 25 minutes, read-out: decomposition in contact with 1st solution
  degraded at 25 min: 50%
[1]; [3]
  degraded at 0.5 h: 55.8%
  remaining at 0.5 h: 44.2%
[1]; [4]
  degraded at 1 h: 84.1%
[1]; [5]
  remaining at 1 h: 15.9%
[2]; after 15-minute stirring
  elution rate, pH 1.2, 2 and 3: ≥ 95%
  elution rate, pH 4 and 5: 45-55%
  elution rate, physiological saline solution: 10%
[2]; general description
  elution rate in pH 1.2-3 acidic aqueous solution (summary): more than 95%
  elution rate in pH 4-5 weak acidic aqueous solution (summary): less than 50%
  elution rate in physiological saline solution (summary): less than 15%
[2]; [6]
  time within which elution was nearly completed: ≤ 15 min

## CO[C@@H]1[C@@H](O[C@@H]2O[C@H](C)[C@@H](O[C@H]3C[C@@](C)(O)[C@@H](OC(=O)CC(C)C)[C@H](C)O3)[C@H](N(C)C)[C@H]2O)[C@@H](CC=O)C[C@@H](C)[C@@H](O)/C=C/C=C/C[C@@H](C)OC(=O)C[C@H]1OC(C)=O [josamycin]
[1]; 150 mg of glycine
  improvement of stability compared with control, 30 minutes: 30%
[1]; jp 1st solution, pH 1.2, decomposites (balance)
  degraded at 1 h: 53.3%
[1]; jp 1st solution, pH 1.2, residual amount after contact with 1st solution
  remaining at 1 h: 46.7%
[2]; after 15-minute stirring
  elution rate, pH 1.2, 2 and 3: ≥ 95%
  elution rate, pH 4 and 5: 50-60%
  elution rate, physiological saline solution: 15%
[2]; general description
  elution rate in pH 1.2-3 acidic aqueous solution (summary): more than 95%
  elution rate in pH 4-5 weak acidic aqueous solution (summary): less than 50%
  elution rate in physiological saline solution (summary): less than 15%
[2]; solutions whose pH is equal to or less than 4.35
  time within which elution was nearly completed: ≤ 15 min

## CCC(=O)OC1CC(=O)OC(C)C/C=C/C=C/C(O)C(C)CC(CC=O)C(OC2OC(C)C(OC3CC(C)(O)C(OC(=O)CC)C(C)O3)C(N(C)C)C2O)C1OC (stereo not drawn) [midecamycin]
[1]; 150 mg of glycine
  improvement of stability compared with control, 30 minutes: 50%
[1]; [7]
  decomposites (balance), 30 minutes: 42.6%
  residual amount after contact with 1st solution, 30 minutes: 57.4%
[1]
  stability in 1st solution (in words): extremely unstable
  stability with a larger amount of glycine (in words): hardly decomposed
[1]; 1st solution
  stability with tri-sodium citrate (in words): extremely well stabilized
  stability with calcium phosphate (in words): extremely well stabilized
  stability with glycine (in words): stabilized well
  stability with L-aspartic acid monosodium salt (in words): very much enhanced
  stability with monosodium glutamate (in words): very much enhanced
[1]; [8]
  degraded at 0.5 h: 55%
  remaining at 0.5 h: 45%
[1]; jp 1st solution, pH 1.2, 1st solution pH 1.2, 37° C., no stabilizer, read-out: decomposites (balance), 60 minutes
  degraded at 1 h: 65%
[1]; jp 1st solution, pH 1.2, 1st solution pH 1.2, 37° C., no stabilizer, read-out: residual amount after contact with 1st solution, 60 minutes
  remaining at 1 h: 35%
[2]; after 15-minute stirring
  elution rate, pH 1.2, 2 and 3: ≥ 95%
  elution rate, pH 4 and 5: 45-60%
  elution rate, physiological saline solution: 15%
[2]; general description
  elution rate in pH 1.2-3 acidic aqueous solution (summary): more than 95%
  elution rate in pH 4-5 weak acidic aqueous solution (summary): less than 50%
  elution rate in physiological saline solution (summary): less than 15%
[2]; [6]
  time within which elution was nearly completed: ≤ 15 min
